In US20220160651A1, “RAPIDLY IMPROVING ENDOTHELIAL FUNCTION, REDUCING ARTERIAL STIFFNESS AND REVERSING CALCIFICATION OF BLOOD VESSELS BY ADMINISTERING VITAMIN K” (KAYDENCE PHARMA AS, priority 2019, published 2022):

Assays:
ApoE/LDLR−/− mice = experiment: Nitrite and nitrate concentration in plasma, HPLC-based ENO-20 (Example 2); assay type: in vivo; conditions: two months; for increase in NO2− concentration in plasma: vs untreated
Experimental: Nitrite (NO2^−) and nitrate (NO3^−) concentration in plasma—HPLC-based ENO-20
Blood samples were collected from heart into test tubes containing additional anticoagulant and centrifuged at 1000 g for 10 min at 4° C. The samples were used for HPLC measurement of nitrate (NO3^−) and nitrite (NO2^−) concentrations in plasma by an ENO-20 NOx Analyzer.

matrix gla protein (MGP) = experiment: Clinical study: blood analysis of matrix gla protein carboxylation; assay type: in vivo, human; conditions: 360 ug/day, after 8 weeks of treatment, kidney transplant patients
Experimental: Participants were enrolled in a clinical trial in which the effects of vitamin K2 were determined for patients who had recently undergone a kidney transplant. At the beginning of the study, patients were subjected to a non-invasive pulse wave velocity measurement to measure arterial stiffness/flexibility, as well as blood analysis. The study participants were then instructed to receive a specific daily dose of MenaQ7 vitamin K2 menaquinone-7 (360 ug/day) for a total of 8 weeks. At the end of 8 weeks, patients were again examined with a follow-up examination, a non-invasive pulse wave velocity measurement and blood analysis and drug treatment was discontinued.
As part of the blood analysis, carboxylated matrix gla protein (MGP) was measured as a direct measure of vitamin K2 activity. The carboxylated MGP inhibits calcification of blood vessels and Vitamin K2 stimulates carboxylation of MGP.

[1] = mouse, in vivo, 5 mg/kg/day
[2] = test system: endothelial nitric oxide synthase (eNOS)-dependent nitric oxide (NO) production; experiment: Endothelial NO production in ex vivo aorta by EPR spin-trapping; conditions: 0.05 mg/kg b.w./day, vs untreated age-matched mice
Excerpt: For measurements of endothelial nitric oxide synthase (eNOS)-dependent nitric oxide (NO) production, EPR spin-trapping with diethyldithiocarbamic acid sodium salt (DETC) was used ex vivo, as described in Przyborowski K, Proniewski B, Czarny J, Smeda M, Sitek B, Zakrzewska A, et al. Vascular Nitric Oxide-Superoxide Balance and Thrombus Formation after Acute Exercise. Med Sci Sport Exerc 2018:1. doi:10.1249/MSS.0000000000001589, with minor modifications. Isolated aorta cleared from surrounding tissue was opened longitudinally and preincubated with 10 μM L-NIL (N6-(1-Iminoethyl)-lysine, hydrochloride) in Krebs-HEPES buffer for 30 minutes at 37° C. in a well of a 48-well plate. Next, 250 μL of Fe(DETC)2 colloid was added and aorta was stimulated with calcium ionophore A23187 (the final concentration was 1 μM) and subsequently, incubated for 90 minutes at 37° C. Finally, aorta was weighed and frozen in liquid nitrogen (suspended in fresh buffer) into the middle of a 400 μL column of Krebs-Hepes buffer and stored at −80° C. until measured. EPR spectra were obtained using an X-band EPR spectrometer (EMX Plus, Bruker, Germany), equipped with a rectangular resonator cavity H102. Signals were quantified by measuring the total amplitude of the NO-Fe(DETC)2 after correction of baseline. The quantitative results of NO production assessed by EPR were expressed in AU/mg of tissue.

## CC(C)=CCC/C(C)=C/CC/C(C)=C/CC/C(C)=C/CC/C(C)=C/CC/C(C)=C/CC/C(C)=C/CC1=C(C)C(=O)c2ccccc2C1=O [MK-7, menaquinone-7]
ApoE/LDLR−/− mice; 0.03 and 10 mg/kg b.w./day
  concentration of NO3− in plasma: did not change significantly
ApoE/LDLR−/− mice; high dose 10 mg/kg b.w./day
  increase in NO2− concentration in plasma: ~42%
ApoE/LDLR−/− mice; low dose 0.03 mg/kg b.w./day
  increase in NO2− concentration in plasma: about 58%
Matrix gla protein (MGP)
  mean reduction of levels of uncarboxylated MGP: 55%
[1]
  concentration of MK4 2,3-epoxide in plasma: maintained at similar level in all groups
  plasma concentration of MK-4: dose-dependent increase
  vitamin K1 and K1 2,3-epoxide plasma concentration: tent to decrease with increasing dose
[2]
  nitric oxide production in ex vivo aorta by EPR: increased nitric oxide production
